Source: patent US11596692B1 (Incyte Corporation, priority 2018, dated 2023)
pEC50, pIC50: −log10 of the molar value. Read-outs that look alike come from different tables or passages of the source.

Key:
PD-L1 [1] = target: T1, PD-L1 (Homo sapiens (Human), UniProt Q9NZQ7); experiment: PD-L1 surface levels on HEK293T STING reporter cells, high PD-L1; format: cell-based
Experimental: To determine PD-L1 expression on HEK cells after treatment of PD-L1-small molecule conjugated STING agonists, cells were harvested at 20 hours post-treatment. Single cell suspensions were then stained with phycoerythrin-conjugated anti-PD-L1 antibody (BD Bioscience), and the PD-L1 expression were then analyzed by flow cytometry. Mean fluorescence intensity was used as the relative level of surface PD-L1 expression on cells (FIG. 1 and Table 6).
Also, cells were stained with PE-conjugated anti-human PD-L1 antibody to determine surface PD-L1 expression. Cell acquisition was performed on BD LSRFortessa X-20 (BD Biosciences). Data was analyzed using FlowJo software. IC50 values were calculated using Prism Software.

[2] = tested on: IRF3 activation in PD-L1 low HEK293T STING reporter cell line; experiment: IRF3 activation in HEK293T STING reporter cells, low PD-L1; format: cell-based, human; settings: 20 hours, read-out: IRF Activation EC50 (nM), Low PD-L1
Experimental: (§1) HEK293T STING reporter cell line was purchased from Invivogen and expressed low level of PD-L1. This cell line was then engineered at Incyte Research Institute to overexpress human PD-L1. Both PD-L1 high and PD-L1 low HEK293T cell lines were plated at 100,000 cells/100 μL/well in 10% fetal calf serum-containing DMEM culture medium in a 96-well flat bottom plate. Serial dilutions of PD-L1 small molecule-conjugated STING agonists were then added to the corresponding wells, and incubated for 20 hours at 37° C. In a competition study setting, 1 μM of a PD-L1 small molecule was added in the corresponding wells to compete with the binding of PD-L1 small molecule-conjugated STING agonists. At the end of the incubation, the culture supernatants were carefully removed from each well, and the amount of IRF3 activation was determined by adding Quanti-Blue substrate in accordance with the manufacturer's protocol.
(§2) 293T-Dual hSTING-R232 (ISG/KI-IFNb) cells that were generated from 293T-Dual Null (ISG/KI-IFNb) cells by stable transfection of the R232 isoform of human STING were purchased from Invivogen (Invivogen #293d-r232).
(§3) This cell line expresses an ISRE-inducible SEAP (secreted embryonic alkaline phosphatase) reporter construct, which monitors the activation of interferon regulatory factor (IRF) and its binding to ISRE (IFN-stimulated response elements). These reporter cells express low level of PD-L1. Human PD-L1 was then overexpressed in these cells through stable transfection.
(§4) These 293T-Dual hSTING-R232 reporter cells as well as293T-Dual hSTING-R232 reporter cells overexpressing huPD-L1 were treated with various concentrations of STING compounds for 20 hours. After 20 hours, interferon regulatory factor (IRF) activity was assessed by measuring SEAP levels in the supernatant using QUNTI-Blue. EC50 values were generated by curve fit in Prism software.

[3] = tested on: IRF3 activation in PD-L1 high HEK293T STING reporter cell line; experiment: IRF3 activation in HEK293T STING reporter cells, high PD-L1; format: cell-based, human; settings: for EC50: 20 hours; for Potency shift: with compound P27 (1 μM) versus no competition
Experimental: as §1, §2, §3, §4

PD-L1 [4] = target: T1, PD-L1; experiment: Indirect whole blood PD-L1 internalization assay; format: cell-based; settings: interferon γ, 18 hours, CD14+ gated
Experimental: To determine PD-L1 internalization in human whole blood, normal human blood (Biological Specialty Corp, Colmar. Pa.) was incubated in the presence or absence of a concentration range of test compounds and 1 ng/ml human interferon γ (R&D Systems Inc. Minn. Minn.) in a 96 well round bottom plate (Corning, Corning, N.Y.) for 18 hours at 37° C. Blood was then transferred into 96 well “2 ml Assay Block” (Corning, Corning N.Y.) and stained with PD-L1 (MIH1, eBioscience; or BD Biosciences San Jose, Calif.), CD14 (Life Technologies, Carlsbad, Calif.) for 30 minutes in the dark at room temperature. Whole Blood/red cells were lysed/fixed (lysis buffer BD Biosciences) for 5 minutes at 37° C. in dark and then centrifuged at 1600 RPM for 5 minutes and cells were transferred into 96 well round bottom plates (Corning). Cells were gated on CD14+ (BD Biosciences) and PD-L1 expression determined by mean fluorescence intensity (MFI) (BD LSRFortessa™ X-20). IC50 determination was performed by fitting the curve of compound percent inhibition versus the log of the compound concentration using the GraphPad Prism 7.0 software.

IRF3 = IRF3 activation assay in THP-1 Dual cells; format: cell-based; settings: Homo sapiens, read-out: THP1 IRF3 EC50
In short: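 THP-1 Dual cells (100,000/well) were treated with serially diluted compound for 24 h at 37° C, 5% CO2. IRF3 reporter activity in supernatant was read with QUANTI-Blue as absorbance at 620-655 nm after 2 h, with untreated cells as negative control. EC50 came from fitting percent control activity against log concentration.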

[5] = high PD-L1 cells, read-out: IRF Activation EC50 (nM), High PD-L1
[6] = no competition, read-out: IRF Activation EC50 (nM), No competition
[7] = read-out: IRF Activation EC50 (nM), With compound P27 (1 μM), competition with compound P27 1 μM

T1 sequence (Q9NZQ7 19-290): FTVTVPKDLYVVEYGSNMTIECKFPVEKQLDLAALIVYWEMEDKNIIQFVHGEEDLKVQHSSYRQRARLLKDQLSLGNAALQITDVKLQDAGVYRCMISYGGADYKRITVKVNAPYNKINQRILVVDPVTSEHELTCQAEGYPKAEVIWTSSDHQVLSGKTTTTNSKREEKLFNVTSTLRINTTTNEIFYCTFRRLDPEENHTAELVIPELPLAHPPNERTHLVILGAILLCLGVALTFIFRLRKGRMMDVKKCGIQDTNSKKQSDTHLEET

Structure (SMILES) | pIC50 (PD-L1 [1]) | EC50 [2] | EC50 [3, 5] | also measured
CCn1nc(C)cc1C(=O)Nc1nc2cc(C(N)=O)cc(OC)c2n1C/C=C/Cn1c(NC(=O)c2cc(C)nn2CC)nc2cc(C(N)=O)cc(OCCCNC(=O)[C@H](CC(=O)O)NC(=O)[C@H](CC(=O)O)NC(=O)[C@H](CC(=O)O)NC(=O)[C@H](CC(=O)O)NC(=O)[C@H](CC(=O)O)NC(=O)[C@H](CC(=O)O)NC(=O)[C@H](CC(=O)O)NC(=O)CCCN3CCc4c(nc(C(=O)Nc5cccc(-c6cccc(NC(=O)c7nc8c(n7C)CCN(CCCC(=O)O)C8)c6Cl)c5Cl)n4C)C3)c21 [Example 14] | > 7.30 | 50 to 200 nM | < 50 nM | 
CCn1nc(C)cc1C(=O)Nc1nc2cc(C(N)=O)cc(OC)c2n1C/C=C/Cn1c(NC(=O)c2cc(C)nn2CC)nc2cc(C(N)=O)cc(OCCCNC(=O)[C@H](CC(=O)O)NC(=O)[C@H](CC(=O)O)NC(=O)[C@H](CCCCN)NC(=O)[C@H](CC(=O)O)NC(=O)CCCN3CCc4c(nc(C(=O)Nc5cccc(-c6cccc(NC(=O)c7nc8c(n7C)CCN(CCCC(=O)O)C8)c6Cl)c5Cl)n4C)C3)c21 [Example 18] | > 7.30 | < 50 nM | < 50 nM | 
CCn1nc(C)cc1C(=O)Nc1nc2cc(C(N)=O)cc(OC)c2n1C/C=C/Cn1c(NC(=O)c2cc(C)nn2CC)nc2cc(C(N)=O)cc(OCCCNC(=O)[C@H](CC(=O)O)NC(=O)[C@H](CC(=O)O)NC(=O)[C@H](CC(=O)O)NC(=O)[C@H](CCCNC(=N)N)NC(=O)CCCN3CCc4c(nc(C(=O)Nc5cccc(-c6cccc(NC(=O)c7nc8c(n7C)CCN(CCCC(=O)O)C8)c6Cl)c5Cl)n4C)C3)c21 [Example 17] | > 7.30 | 50 to 200 nM | < 50 nM | 
CCn1nc(C)cc1C(=O)Nc1nc2cc(C(N)=O)cc(OC)c2n1C/C=C/Cn1c(NC(=O)c2cc(C)nn2CC)nc2cc(C(N)=O)cc(OCCCNC(=O)[C@H](CC(=O)O)NC(=O)[C@H](CC(=O)O)NC(=O)[C@H](CCCNC(=N)N)NC(=O)[C@H](CC(=O)O)NC(=O)[C@H](CC(=O)O)NC(=O)[C@H](CC(=O)O)NC(=O)[C@H](CCCNC(=N)N)NC(=O)[C@H](CC(=O)O)NC(=O)CCCN3CCc4c(nc(C(=O)Nc5cccc(-c6cccc(NC(=O)c7nc8c(n7C)CCN(CCCC(=O)O)C8)c6Cl)c5Cl)n4C)C3)c21 [Example 15] | > 7.30 | 50 to 200 nM | < 50 nM | 
CCn1nc(C)cc1C(=O)Nc1nc2cc(C(N)=O)cc(OC)c2n1C/C=C/Cn1c(NC(=O)c2cc(C)nn2CC)nc2cc(C(N)=O)cc(OCCCNC(=O)[C@H](CC(=O)O)NC(=O)[C@H](CC(=O)O)NC(=O)[C@H](CC(=O)O)NC(=O)[C@H](CC(=O)O)NC(=O)CCCN3CCc4c(nc(C(=O)Nc5cccc(-c6cccc(NC(=O)c7nc8c(n7C)CCN(CCCC(=O)O)C8)c6Cl)c5Cl)n4C)C3)c21 [Example 12] |  | 50 to 200 nM | < 50 nM | 
CCn1nc(C)cc1C(=O)Nc1nc2cc(C(N)=O)cc(OC)c2n1C/C=C/Cn1c(NC(=O)c2cc(C)nn2CC)nc2cc(C(N)=O)cc(OCCCNC(=O)[C@H](CC(=O)O)NC(=O)[C@H](CCCNC(=N)N)NC(=O)[C@H](CC(=O)O)NC(=O)[C@H](CC(=O)O)NC(=O)CCCN3CCc4c(nc(C(=O)Nc5cccc(-c6cccc(NC(=O)c7nc8c(n7C)CCN(CCCC(=O)O)C8)c6Cl)c5Cl)n4C)C3)c21 [Example 16] | > 7.30 | < 50 nM | < 50 nM | 
Cc1c(NC(=O)c2ccc(CNCCO)cn2)cccc1-c1cccc(NC(=O)c2ccc(CNCCO)cn2)c1Cl [Example P7] |  |  |  | pIC50 (PD-L1 [4]): > 7.00
CCn1nc(C)cc1C(=O)Nc1nc2cc(C(N)=O)cc(OC)c2n1C/C=C/Cn1c(NC(=O)c2cc(C)nn2CC)nc2cc(C(N)=O)cc(OCCCNC(=O)CCNC(=O)OCc3ccc(NC(=O)[C@H](CCCNC(N)=O)NC(=O)[C@@H](CC(=O)Cn4cc(CCNC(=O)[C@H](CC(=O)O)NC(=O)[C@H](CC(=O)O)NC(=O)[C@H](CCCNC(=N)N)NC(=O)[C@H](CC(=O)O)NC(=O)CCCN5CCc6c(nc(C(=O)Nc7cccc(-c8cccc(NC(=O)c9nc%10c(n9C)CCN(CCCC(=O)O)C%10)c8Cl)c7Cl)n6C)C5)nn4)C(C)C)cc3)c21 [Example 4] |  | 200 to 1000 nM | < 50 nM | EC50 [3, 6]: < 50 nM; EC50 [3, 7]: 200 to 1000 nM; Potency shift [3]: >20
CCn1nc(C)cc1C(=O)Nc1nc2cc(C(N)=O)cc(OC)c2n1C/C=C/Cn1c(NC(=O)c2cc(C)nn2CC)nc2cc(C(N)=O)cc(OCCCNC(=O)CCNC(=O)OCc3ccc(NC(=O)[C@H](CCCNC(N)=O)NC(=O)[C@@H](NC(=O)CCCN4CCc5c(nc(C(=O)Nc6cccc(-c7cccc(NC(=O)c8nc9c(n8C)CCN(CCCC(=O)N[C@@H](CC(=O)O)C(=O)O)C9)c7Cl)c6Cl)n5C)C4)C(C)C)cc3)c21 [Example 3] |  | 200 to 1000 nM | < 50 nM | EC50 [3, 6]: < 50 nM; EC50 [3, 7]: 200 to 1000 nM; Potency shift [3]: >20
CCn1nc(C)cc1C(=O)Nc1nc2cc(C(N)=O)cc(C)c2n1C/C=C/Cn1c2nc(-c3cc(C)nn3CC)ncc2c2cc(C(N)=O)cc(OCCCO)c21 [Example S13, (E)-9-(4-(5-carbamoyl-2-(1-ethyl-3-methyl-1H-pyrazole-5-carboxamido)-7-methyl-1H-benzo[d]imidazol-1-yl)but-2-enyl)-2-(1-ethyl-3-methyl-1H-pyrazol-5-yl)-8-(3-hydroxypropoxy)-9H-pyrimido[4,5-b]indole-6-carboxamide] |  |  |  | pEC50 (IRF3; THP-1, Table 4A): ≥ 7.00; pEC50 (IRF3; THP-1, Table 4B): > 6.70; pEC50 (IRF3; THP-1, Table 4C): ≥ 7.30
Cc1c(-c2nc3cc(CN4CC[C@H](C(=O)O)C4)cc(C#N)c3o2)cccc1-c1cccc(NC(=O)c2nc3c(n2C)CCN(C)C3)c1Cl [Example P11] |  |  |  | pIC50 (PD-L1 [4]): > 7.00
CCn1nc(C)cc1C(=O)Nc1nc2cc(C(N)=O)cc(OCCCO)c2n1C/C=C/Cn1c2nc(-c3cc(C)nn3CC)ncc2c2cc(C(N)=O)cc(OCCCN3CCOCC3)c21 [Example S20, (E)-9-(4-(5-carbamoyl-2-(1-ethyl-3-methyl-1H-pyrazole-5-carboxamido)-7-(3-hydroxypropoxy)-1H-benzo[d]imidazol-1-yl)but-2-en-1-yl)-2-(1-ethyl-3-methyl-1H-pyrazol-5-yl)-8-(3-morpholinopropoxy)-9H-pyrimido[4,5-b]indole-6-carboxamide] |  |  |  | pEC50 (IRF3; THP-1, Table 4A): ≥ 7.00; pEC50 (IRF3; THP-1, Table 4B): > 6.70; pEC50 (IRF3; THP-1, Table 4C): ≥ 7.30
CCn1nc(C)cc1C(=O)Nc1nc2cc(C(N)=O)cc(C)c2n1C/C=C/Cn1c2nc(-c3cc(C)nn3CC)ncc2c2cc(C(N)=O)cc(OCCCOC)c21 [Example S12, (E)-9-(4-(5-carbamoyl-2-(1-ethyl-3-methyl-1H-pyrazole-5-carboxamido)-7-methyl-1H-benzo[d]imidazol-1-yl)but-2-enyl)-2-(1-ethyl-3-methyl-1H-pyrazol-5-yl)-8-(3-methoxypropoxy)-9H-pyrimido[4,5-b]indole-6-carboxamide] |  |  |  | pEC50 (IRF3; THP-1, Table 4A): ≥ 7.00; pEC50 (IRF3; THP-1, Table 4B): > 6.70; pEC50 (IRF3; THP-1, Table 4C): ≥ 7.30
